Experimental data from US20260022142A1, “MACROCYCLIC IMMUNOMODULATORS” (Bristol-Myers Squibb Company, priority 2022, published 2026).
Numbered stars: 1 amine (or outer) side, 2 acyl side, 3 side chain; on linkers, the order of the positions; unused ones are H or OH. Bridge positions count the residues as written; N and C are the ends. Square brackets hold non-standard residues; d marks the D form. Peptide text beside a SMILES is read from it. * marks the point of attachment. Phe(3-CF3) = N[C@@H](Cc1cccc(C(F)(F)F)c1)C(=O)O; Phe(4-CONH2) = NC(=O)c1ccc(C[C@H](N)C(=O)O)cc1; Phe(4-COOH) = N[C@@H](Cc1ccc(C(=O)O)cc1)C(=O)O; Bip = N[C@@H](Cc1ccc(-c2ccccc2)cc1)C(=O)O; NH(CH2)14COOH = O=C(O)CCCCCCCCCCCCCCN*; Phe(3-Me) = Cc1cccc(C[C@H](N)C(=O)O)c1; γGlu = O=C(O)[C@H](CCC(=O)[*:2])N[*:1]; βAsp = O=C(O)[C@H](CC(=O)[*:2])N[*:1]; NH(CH2)12COOH = O=C(O)CCCCCCCCCCCCN*; Val(3-OH) = CC(C)(O)[C@H](N)C(=O)O; 4Pal = N[C@@H](Cc1ccncc1)C(=O)O; Cha = N[C@@H](CC1CCCCC1)C(=O)O; PEG4 = NCCOCCOCCOCCOCCC(=O)O; Carboxymethyl = O=C(O)C*; Orn = NCCC[C@H](N)C(=O)O; Aun = NCCCCCCCCCCC(=O)O; Dab = NCC[C@H](N)C(=O)O; Nva = CCC[C@H](N)C(=O)O; Abu = CC[C@H](N)C(=O)O; AEEA = NCCOCCOCC(=O)O

Molecular target: T1, PD-1/PD-L1 interaction (PE-labeled human PD-L1-Ig binding to Jurkat cell line over-expressing human PD-1) (Homo sapiens, UniProt Q15116)
T1 construct: expressed in transfected cells; host or cells: Jurkat
T1 sequence (Q15116 25-288): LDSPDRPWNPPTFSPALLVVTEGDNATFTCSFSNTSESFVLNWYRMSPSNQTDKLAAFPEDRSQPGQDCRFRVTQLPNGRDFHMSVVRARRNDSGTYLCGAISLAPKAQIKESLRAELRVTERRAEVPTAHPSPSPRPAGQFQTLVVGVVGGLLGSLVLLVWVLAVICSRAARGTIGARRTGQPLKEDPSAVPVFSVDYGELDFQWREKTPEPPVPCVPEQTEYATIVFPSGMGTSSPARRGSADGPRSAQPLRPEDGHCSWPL
Assay: Jurkat-PD-1 Cell Binding High-Content Screening Assay (CBA)
Type: cell-based
Settings: Jurkat cell line over-expressing human PD-1; PE-labeled PD-L1-Ig 20 nM final; read-out: Jurkat hPD1-PDL1 IC50
Method in brief: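 Human PD-L1-Ig carrying a covalent PE label on its Ig tag serves as the probe, applied at 20 nM final to compound-treated (2 h, 37° C) Jurkat-hPD-1 cells in medium with 10% fetal calf serum. After one hour, fixation and nuclear staining precede high-content image analysis.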

Row | Compound | IC50 [nM]
1 | Cc1cccc(C[C@@H]2NC(=O)[C@H](CC(=O)O)NC(=O)[C@H](Cc3ccc(OCC(=O)O)cc3)NC(=O)[C@H](Cc3ccncc3)NC(=O)CSC[C@@H](C(=O)N[C@@H](CCN)C(=O)NCCCCCCCCCCC(=O)O)NC(=O)[C@H]([C@@H](C)O)NC(=O)[C@H](C(C)C)NC(=O)[C@H](CC3CCCCC3)NC(=O)[C@H](CCN)NC(=O)[C@@H](CC(C)C)NC(=O)[C@H](CCCN)NC(=O)[C@H](Cc3ccc(OCC(=O)O)cc3)NC(=O)[C@H](Cc3ccc(-c4ccccc4)cc3)NC(=O)[C@H](Cc3ccc(OCC(=O)O)cc3)NC2=O)c1 [Compound 2924] ({CH2CO}-[4Pal]Y(Carboxymethyl)D[Phe(3-Me)]Y(Carboxymethyl)[Bip]Y(Carboxymethyl)[Orn][dL][Dab][Cha]VTC[Dab][Aun]-OH; thioether N-14) | 16.8
2 | Cc1cccc(C[C@@H]2NC(=O)[C@H](CC(=O)O)NC(=O)[C@H](Cc3ccc(OCC(=O)O)cc3)NC(=O)[C@H](Cc3ccc(C(N)=O)cc3)NC(=O)CSC[C@@H](C(=O)N[C@@H](CCN)C(=O)NCCCCCCCCCCC(=O)O)NC(=O)[C@H]([C@@H](C)O)NC(=O)[C@H](C(C)C)NC(=O)[C@H](CC3CCCCC3)NC(=O)[C@H](CCN)NC(=O)[C@@H](CC(C)C)NC(=O)[C@H](CCCN)NC(=O)[C@H](Cc3ccc(OCC(=O)O)cc3)NC(=O)[C@H](Cc3ccc(-c4ccccc4)cc3)NC(=O)[C@H](Cc3ccc(OCC(=O)O)cc3)NC2=O)c1 [Compound 2925] ({CH2CO}-[Phe(4-CONH2)]Y(Carboxymethyl)D[Phe(3-Me)]Y(Carboxymethyl)[Bip]Y(Carboxymethyl)[Orn][dL][Dab][Cha]VTC[Dab][Aun]-OH; thioether N-14) | 36.6
3 | CC[C@@H]1NC(=O)CSC[C@@H](C(=O)N[C@@H](CCN)C(=O)NCCOCCOCCOCCOCCC(=O)NCCCCCCCCCCCCC(=O)O)NC(=O)[C@H](Cc2c[nH]cn2)NC(=O)[C@H](C(C)(C)O)NC(=O)[C@H](CC2CCCCC2)NC(=O)[C@H](CCN)NC(=O)[C@@H](CC(C)C)NC(=O)[C@H](CCCN)NC(=O)[C@H](Cc2ccc(C(=O)O)cc2)NC(=O)[C@H](Cc2ccc(-c3ccccc3)cc2)NC(=O)[C@H](Cc2ccc(C(=O)O)cc2)NC(=O)[C@H](Cc2cccc(C(F)(F)F)c2)NC(=O)[C@H](CC(=O)O)NC(=O)[C@H](Cc2ccc(OCC(=O)O)cc2)NC1=O [Compound 2926] ({CH2CO}-[Abu]Y(Carboxymethyl)D[Phe(3-CF3)][Phe(4-COOH)][Bip][Phe(4-COOH)][Orn][dL][Dab][Cha][Val(3-OH)]HC[Dab][PEG4]-{NH(CH2)12COOH}; thioether N-14) | 32.9
4 | CC[C@@H]1NC(=O)CSC[C@@H](C(=O)N[C@@H](CCN)C(=O)NCCOCCOCCOCCOCCC(=O)NCCCCCCCCCCCCCCC(=O)O)NC(=O)[C@H](Cc2c[nH]cn2)NC(=O)[C@H](C(C)(C)O)NC(=O)[C@H](CC2CCCCC2)NC(=O)[C@H](CCN)NC(=O)[C@@H](CC(C)C)NC(=O)[C@H](CCCN)NC(=O)[C@H](Cc2ccc(C(=O)O)cc2)NC(=O)[C@H](Cc2ccc(-c3ccccc3)cc2)NC(=O)[C@H](Cc2ccc(C(=O)O)cc2)NC(=O)[C@H](Cc2cccc(C(F)(F)F)c2)NC(=O)[C@H](CC(=O)O)NC(=O)[C@H](Cc2ccc(OCC(=O)O)cc2)NC1=O [Compound 2927] ({CH2CO}-[Abu]Y(Carboxymethyl)D[Phe(3-CF3)][Phe(4-COOH)][Bip][Phe(4-COOH)][Orn][dL][Dab][Cha][Val(3-OH)]HC[Dab][PEG4]-{NH(CH2)14COOH}; thioether N-14) | 244
5 | CC[C@@H]1NC(=O)CSC[C@@H](C(=O)N[C@@H](CCN)C(=O)NCCCCCCCCCCCCC(=O)O)NC(=O)[C@H](Cc2c[nH]cn2)NC(=O)[C@H](C(C)(C)O)NC(=O)[C@H](CC2CCCCC2)NC(=O)[C@H](CCN)NC(=O)[C@@H](CC(C)C)NC(=O)[C@H](CCCN)NC(=O)[C@H](Cc2ccc(C(=O)O)cc2)NC(=O)[C@H](Cc2ccc(-c3ccccc3)cc2)NC(=O)[C@H](Cc2ccc(C(=O)O)cc2)NC(=O)[C@H](Cc2cccc(C(F)(F)F)c2)NC(=O)[C@H](CC(=O)O)NC(=O)[C@H](Cc2ccc(OCC(=O)O)cc2)NC1=O [Compound 2928] ({CH2CO}-[Abu]Y(Carboxymethyl)D[Phe(3-CF3)][Phe(4-COOH)][Bip][Phe(4-COOH)][Orn][dL][Dab][Cha][Val(3-OH)]HC[Dab]-{NH(CH2)12COOH}; thioether N-14) | 44.8
6 | CC[C@@H]1NC(=O)CSC[C@@H](C(=O)N[C@@H](CCN)C(=O)NCCCCCCCCCCCCCCC(=O)O)NC(=O)[C@H](Cc2c[nH]cn2)NC(=O)[C@H](C(C)(C)O)NC(=O)[C@H](CC2CCCCC2)NC(=O)[C@H](CCN)NC(=O)[C@@H](CC(C)C)NC(=O)[C@H](CCCN)NC(=O)[C@H](Cc2ccc(C(=O)O)cc2)NC(=O)[C@H](Cc2ccc(-c3ccccc3)cc2)NC(=O)[C@H](Cc2ccc(C(=O)O)cc2)NC(=O)[C@H](Cc2cccc(C(F)(F)F)c2)NC(=O)[C@H](CC(=O)O)NC(=O)[C@H](Cc2ccc(OCC(=O)O)cc2)NC1=O [Compound 2929] ({CH2CO}-[Abu]Y(Carboxymethyl)D[Phe(3-CF3)][Phe(4-COOH)][Bip][Phe(4-COOH)][Orn][dL][Dab][Cha][Val(3-OH)]HC[Dab]-{NH(CH2)14COOH}; thioether N-14) | 369
7 | CCC[C@@H]1NC(=O)CSC[C@@H](C(=O)N[C@@H](CCN)C(=O)NCCOCCOCC(=O)N[C@@H](CC(=O)NCCOCCOCC(=O)NCCCCCCCCCCCCC(=O)O)C(=O)O)NC(=O)[C@H](CO)NC(=O)[C@H](C(C)(C)O)NC(=O)[C@H](CC2CCCCC2)NC(=O)[C@H](CCN)NC(=O)[C@@H](CC(C)C)NC(=O)[C@H](CCCN)NC(=O)[C@H](Cc2ccc(C(=O)O)cc2)NC(=O)[C@H](Cc2ccc(-c3ccccc3)cc2)NC(=O)[C@H](Cc2ccc(C(=O)O)cc2)NC(=O)[C@H](Cc2cccc(C(F)(F)F)c2)NC(=O)[C@H](CC(=O)O)NC(=O)[C@H](Cc2ccc(OCC(=O)O)cc2)NC1=O [Compound 2931] ({CH2CO}-[Nva]Y(Carboxymethyl)D[Phe(3-CF3)][Phe(4-COOH)][Bip][Phe(4-COOH)][Orn][dL][Dab][Cha][Val(3-OH)]SC[Dab][AEEA][βAsp][AEEA]-{NH(CH2)12COOH}; thioether N-14) | 26.3
8 | CC[C@@H]1NC(=O)CSC[C@@H](C(=O)N[C@@H](CCN)C(=O)NCCOCCOCC(=O)N[C@@H](CCC(=O)NCCOCCOCC(=O)NCCCCCCCCCCCCC(=O)O)C(=O)O)NC(=O)[C@H](CO)NC(=O)[C@H](C(C)(C)O)NC(=O)[C@H](CC2CCCCC2)NC(=O)[C@H](CCN)NC(=O)[C@@H](CC(C)C)NC(=O)[C@H](CCCN)NC(=O)[C@H](Cc2ccc(C(=O)O)cc2)NC(=O)[C@H](Cc2ccc(-c3ccccc3)cc2)NC(=O)[C@H](Cc2ccc(C(=O)O)cc2)NC(=O)[C@H](Cc2cccc(C(F)(F)F)c2)NC(=O)[C@H](CC(=O)O)NC(=O)[C@H](Cc2ccc(OCC(=O)O)cc2)NC1=O [Compound 2932] ({CH2CO}-[Abu]Y(Carboxymethyl)D[Phe(3-CF3)][Phe(4-COOH)][Bip][Phe(4-COOH)][Orn][dL][Dab][Cha][Val(3-OH)]SC[Dab][AEEA][γGlu][AEEA]-{NH(CH2)12COOH}; thioether N-14) | 33
9 | CC[C@@H]1NC(=O)CSC[C@@H](C(=O)N[C@@H](CCN)C(=O)NCCOCCOCC(=O)N[C@@H](CC(=O)NCCOCCOCC(=O)NCCCCCCCCCCCCC(=O)O)C(=O)O)NC(=O)[C@H](CO)NC(=O)[C@H](C(C)(C)O)NC(=O)[C@H](CC2CCCCC2)NC(=O)[C@H](CCN)NC(=O)[C@@H](CC(C)C)NC(=O)[C@H](CCCN)NC(=O)[C@H](Cc2ccc(C(=O)O)cc2)NC(=O)[C@H](Cc2ccc(-c3ccccc3)cc2)NC(=O)[C@H](Cc2ccc(C(=O)O)cc2)NC(=O)[C@H](Cc2cccc(C(F)(F)F)c2)NC(=O)[C@H](CC(=O)O)NC(=O)[C@H](Cc2ccc(OCC(=O)O)cc2)NC1=O [Compound 2933] ({CH2CO}-[Abu]Y(Carboxymethyl)D[Phe(3-CF3)][Phe(4-COOH)][Bip][Phe(4-COOH)][Orn][dL][Dab][Cha][Val(3-OH)]SC[Dab][AEEA][βAsp][AEEA]-{NH(CH2)12COOH}; thioether N-14) | 26.5
10 | CC(C)C[C@H]1NC(=O)[C@H](CCCN)NC(=O)[C@H](Cc2ccc(C(=O)O)cc2)NC(=O)[C@H](Cc2ccc(-c3ccccc3)cc2)NC(=O)[C@H](Cc2ccc(C(=O)O)cc2)NC(=O)[C@H](Cc2cccc(C(F)(F)F)c2)NC(=O)[C@H](CC(=O)O)NC(=O)[C@H](Cc2ccc(OCC(=O)O)cc2)NC(=O)[C@H](C)NC(=O)CSC[C@@H](C(=O)N[C@@H](CCN)C(=O)NCCOCCOCC(=O)N[C@@H](CCC(=O)NCCOCCOCC(=O)NCCCCCCCCCCCCC(=O)O)C(=O)O)NC(=O)[C@H](CO)NC(=O)[C@H](C(C)(C)O)NC(=O)[C@H](CC2CCCCC2)NC(=O)[C@H](CCN)NC1=O [Compound 2934] ({CH2CO}-AY(Carboxymethyl)D[Phe(3-CF3)][Phe(4-COOH)][Bip][Phe(4-COOH)][Orn][dL][Dab][Cha][Val(3-OH)]SC[Dab][AEEA][γGlu][AEEA]-{NH(CH2)12COOH}; thioether N-14) | 39
11 | CC(C)C[C@H]1NC(=O)[C@H](CCCN)NC(=O)[C@H](Cc2ccc(C(=O)O)cc2)NC(=O)[C@H](Cc2ccc(-c3ccccc3)cc2)NC(=O)[C@H](Cc2ccc(C(=O)O)cc2)NC(=O)[C@H](Cc2cccc(C(F)(F)F)c2)NC(=O)[C@H](CC(=O)O)NC(=O)[C@H](Cc2ccc(OCC(=O)O)cc2)NC(=O)[C@H](C)NC(=O)CSC[C@@H](C(=O)N[C@@H](CCN)C(=O)NCCOCCOCC(=O)N[C@@H](CC(=O)NCCOCCOCC(=O)NCCCCCCCCCCCCC(=O)O)C(=O)O)NC(=O)[C@H](CO)NC(=O)[C@H](C(C)(C)O)NC(=O)[C@H](CC2CCCCC2)NC(=O)[C@H](CCN)NC1=O [Compound 2935] ({CH2CO}-AY(Carboxymethyl)D[Phe(3-CF3)][Phe(4-COOH)][Bip][Phe(4-COOH)][Orn][dL][Dab][Cha][Val(3-OH)]SC[Dab][AEEA][βAsp][AEEA]-{NH(CH2)12COOH}; thioether N-14) | 42.4
